Source: publication PMC8230565, “Bisavenathramide Analogues as Nrf2 Inductors and Neuroprotectors in In Vitro Models of Oxidative Stress and Hyperphosphorylation” (Antioxidants, 2021)

Key:
[1] = DPPH radical scavenging assay; conditions: n in brackets
Description: The direct antioxidant effects of compounds 3 were investigated by studying their radical-scavenging effect on the 2,2-diphenyl-1-picrylhydrazyl free radical (DPPH^•). Thus, a 100 μL volume of a methanol solution of each compound was added to 200 μL of 100 μM methanolic DPPH^•, and the solution was kept in the dark at 37 °C for 30 min in a 96-well microliter plate. After this incubation, the absorption at 490 nm of each solution was measured with a microplate reader in order to quantitate its decrease. A blank reading was also taken to calculate the amount of remaining DPPH^•. The radical-scavenging activity exerted by compounds 3 was determined by comparison with a 10 μL of MeOH-treated blank group. Ascorbic acid, a well-known antioxidant acting as a radical scavenger, was used as reference. All samples were analyzed in triplicate. Percent inhibition of the DPPH^• radical was calculated using the equation shown below, where AbsCtrl is the absorbance of the blank group and Abss is the absorbance of the samples containing compounds 3. For each compound showing a percentage of inhibition above 60%, the IC50 value was determined using a dose–response curve obtained from measurements corresponding to at least six concentrations. %Scavenger=AbsCtrl−AbsS/AbsCtrl×100
The radical scavenging activity of all compounds was first studied by the DPPH assay, which measures the ability of antioxidant compounds to donate a hydrogen atom to the violet 2,2-diphenyl-1-picrylhydrazyl radical and transform it into a nonradical species. Thus, it is generally considered to belong to the hydrogen atom transfer (HAT) category of methods for measurement of antioxidant activity.

[2] = Ferric reducing antioxidant power (FRAP) assay; parameters: key to FRAP TEAC: trolox equivalents (TEAC), relative to trolox; conditions: for FRAP nmol Fe2+ at 30 µM: 30 µM compound, n in brackets; for FRAP TEAC: 30 µM, relative to trolox
Description: A ferric reducing antioxidant power (FRAP) kit assay purchased from Sigma-Aldrich (Madrid, Spain) was employed for the experiments. The antioxidant solutions, FRAP assay buffer solution, FeCl3 solution, and FRAP probe solution were kept in ice during the preparation of the plate. A calibration standard curve was prepared by using the 2 mM ferrous standard solution provided in the FRAP kit assay. Appropriate aliquots of this solution were taken and diluted up to a 200 μL final volume with FRAP buffer. The final ferrous concentrations measured in the well were: 0, 20, 40, 60, 80, and 100 μM. Each concentration value was prepared and measured by triplicate. Stock solutions of compounds 3, as well as reference compounds trolox and ferulic acid, were freshly prepared in 95% ethanol at […]. Aliquots of 10 μL of compounds 3 and the reference compounds were mixed with 19 μL FeCl3 solution and 19 μL FRAP probe solution, and then completed to a final volume of 200 μL with FRAP assay buffer solution. The final concentration of antioxidants and references was 30 μM. Compounds 3, reference compounds, as well as the corresponding blank solutions (one for each compound to be assayed, avoiding the chromogenic FRAP probe), and positive control were thoroughly mixed in vortex for 1–2 min with the reaction chromogenic media, and then were incubated under darkness at 37 °C in the dry bath, and using the device for support well-plates. Each compound to be assayed and the reference antioxidant compounds were prepared and measured by triplicate. The absorbance values were measured at 594 nm after 5 min of reaction and, to assure complete reaction, the absorbance values after 60 min of incubation at 37 °C in the dry bath were also measured. The absorbance values of the sample antioxidant compounds were corrected by subtracting the corresponding absorbance values of the blanks, and then they were introduced in the calibration curve and the ferrous equivalents were determined. The reference antioxidants employed for this assay were trolox and ferulic acid, which were obtained from Sigma-Aldrich (Madrid, Spain). Ultrapure water was obtained from a Milli-Q Direct 8 system (Millipore, Molsheim, France).
In order to achieve a broader insight into the antioxidant profile of our compounds, we also examined them using a single electron transfer (SET)-based method, namely the ferric reducing antioxidant power (FRAP) assay, which measures the ability of an antioxidant to reduce the ferric ion in the TPTZ (2,4,6-tri(2-pyridyl)-1,3,5-triazine)-Fe(III) complex.

SH-SY5Y cells [3] = assay: Neuroprotection against rotenone/oligomycin A in SH-SY5Y cells (MTT); format: cell-based; conditions: Homo sapiens, 24 h, 1 µM compound, rotenone 30 µM + oligomycin A 10 µM, read-out: % Neuroprotection ± SEM at 1 µM (rotenone/oligomycin A)
Description: To evaluate the compounds for their neuroprotective effect in an oxidative stress model, we selected the rotenone (30 μM) and oligomycin A (10 μM) (R/O) cocktail, which disturbs the flow of electrons in the mitochondrial respiratory chain. Similarly, SH-SY5Y cells were preincubated with compounds 3 at 1 μM for 24 h. Then, they were co-incubated in the presence of R/O for a further 24 h, evaluating cell viability by the MTT reduction method.
Thus, the R/O combination constitutes a good model of oxidative stress and neurodegeneration with a mitochondrial origin, and has been broadly employed to evaluate potential hit compounds for the treatment of neurodegenerative diseases. Furthermore, treatment of laboratory animals with rotenone is known to induce many features associated to Parkinson’s disease, such as selective nigrostriatal dopaminergic degeneration and the appearance of α-synuclein cytoplasmic inclusions, which are associated with oxidative damage.

SH-SY5Y cells [4] = assay: Neuroprotection against okadaic acid in SH-SY5Y cells (MTT); format: cell-based; conditions: Homo sapiens, SH-SY5Y, 18 h; 1 µM compound; okadaic acid 20 nM; read-out: % Neuroprotection ± SEM at 1 µM (okadaic acid)
Description: Neuroprotection studies against tau hyperphosphorylation exerted by okadaic acid (OA) were evaluated using the SH-SY5Y cell line as follows. […] After 18 h, cell viability was addressed by the MTT reduction method. MTT (5 mg/mL, 10 μL/well) was added and incubated for 2 h. Then, the medium was removed and the purple formazan crystals formed by viable cells were dissolved using 100 μL of DMSO. A FluoStar Optima spectrophotometer (BMG Labtech, Ortenberg, Baden-Württemberg, Germany) was used to measure the absorbance at 570 nm.
Okadaic acid is a potent inhibitor of protein phosphatase 2A (PP2A), thereby inducing tau hyperphosphorylation. For this reason, it can be employed as a model of neurodegenerative-disease-connected tau hyperphosphorylation, a well-known feature of Alzheimer’s disease, but present also in other NDDs, collectively known as tauopathies and characterized by the pathological aggregation of hyperphosphorylated tau in neurofibrillary tangles. […] Tau hyperphosphorylation is connected to oxidative stress, which activates p38 and deactivates calcineurin, a phosphatase involved in tau dephosphorylation by increasing RCAN1, its natural repressor [34, 35]. Indeed, hyperphosphorylation and oxidative stress have been proposed to generate a vicious circle that is critical to the advance of neurodegenerative tauopathies.

| Compound | IC50 [1] [µM] | FRAP nmol Fe2+ at 30 µM [2] | FRAP TEAC [2] | % neuroprotection against rotenone/oligomycin A toxicity at 1 µM (SH-SY5Y cells [3]) [%] | % neuroprotection against okadaic acid at 1 µM (SH-SY5Y cells [4]) [%] |
| --- | --- | --- | --- | --- | --- |
| O=C1O[C@H]([C@@H](O)CO)C(O)=C1O [Ascorbic acid, reference compound] | 16.2 ± 0.7 | – | – | – | – |
| COc1cc(/C=C/C(=O)O)ccc1O [Ferulic acid, reference compound] | – | 1.98 ± 0.04 (3) nmol Fe^2+ | 0.87 | – | – |
| COc1ccc2[nH]cc(CCNC(C)=O)c2c1 [Melatonin, reference compound] | – | – | – | 61.4 ± 8.75 | 67.7 ± 13.9 |
| Cc1c(C)c2c(c(C)c1O)CCC(C)(C(=O)O)O2 (centres unmarked) [Trolox, reference compound] | 11.4 ± 1 | 2.28 ± 0.15 (9) nmol Fe^2+ | 1.00 | – | – |
